{"source": "patent US7863325B2", "about": "“Crystalline genistein sodium salt dihydrate” (Axcentua Pharmaceuticals AB, priority 2008, dated 2011)", "key": {"[1]": {"test": "Solubility in different solvents (aliquot addition until dissolution)", "assay_type": "physicochemical", "protocol": "Solubility in different solvents: Solubility in different organic solvents was measured using the following protocol. Approximately 25 mg portions of genistein and crystalline genistein sodium dihydrate salt were placed in 48 different vials, separately. 5 volume aliquots of each solvent were added exclusively to a vial. Between each addition, the mixture was checked for dissolution and if no dissolution was apparent, the procedure was continued until dissolution was observed or when 50 volumes had been added."}, "[2]": {"test": "SuperSol 1000 kinetic and equilibrium solubility assay"}, "[3]": {"test": "Aqueous solubility (slurry shaken ca. 24 hours, filtered, HPLC)", "assay_type": "physicochemical", "protocol": "Aqueous Solubility: Aqueous solubility was measured using the following protocol. Slurries of genistein and of crystalline genistein sodium dihydrate salt were made up in aqueous media in which pH was set at 4.5, 6.7, and 7.5, each slurry was shaken at ambient temperature for ca. 24 hours and then filtered using a 0.2 μm filter into a clean vial. The saturated solutions were then diluted and analyzed for API (genistein) content using N-Ac-DL-Methionine on a Chirobiotic T HPLC column and UV detector set at λmax=270 nm. The mobile phase was acetonitrile/water run in isocratic mode over a 30 minute period. The results are presented in Table 3, (BDL=below detection limits)."}, "[4]": {"conditions": "cited from earlier work"}, "[5]": {"conditions": "rat, mean ± SD, n = 3", "method": "Preparation of Dosing Solutions for In-Vivo Study: Genistein and Crystalline genistein sodium salt dihydrate were stored at room temperature under desiccant and protected from light. The dosing solutions were prepared fresh from powders on the day of dosing. The dosing solution for intravenous administration (IV) was prepared at 1 mg/mL (free acid) in 50:50 DMSO:saline. The dosing solutions for intraduodenal administration (ID) were prepared at 2 mg/mL (genistein free acid) in a 0.2% sodium carboxymethyl cellulose (Na CMC) solution in water.\nAnimal Dosing: The pharmacokinetics of genistein was evaluated in fasted male Sprague-Dawley rats. Each animal was fitted with a jugular vein cannula (JVC) for blood sampling. Animals intended for intravenous dosing were fitted with an additional JVC for dose administration. Animals intended for intraduodenal dosing were fitted with an intraduodenal cannula (IDC) for dose administration. Surgically modified animals were housed one per cage. All animals were supplied with a commercial rodent diet (LabDiet, Certified Rodent Diet #5002) ad libitum prior to study initiation. […] Water was supplied ad libitum.\nIntraduodenal dosing solutions were administered as a single bolus dose at time zero on the day of dosing. Intravenous doses were administered as a slow IV injection over approximately 1 minute. Blood sampling times began at the end of the infusion. Blood samples were collected.\nEach blood sample was collected from the rats via a jugular vein cannula and placed into chilled polypropylene tubes containing sodium heparin as an anticoagulant. Samples were centrifuged at a temperature of 4° C. and at a speed of 13,000 rpm for 5 minutes. Samples were maintained chilled throughout processing. Each plasma sample was split into two aliquots. The first aliquot contained 50 μL of plasma. All remaining plasma volume was used for the second aliquot. Samples were then placed on dry ice, and stored in a freezer set to maintain −60° C. to −80° C. The total concentration of genistein in plasma samples were analyzed by LC-MS/MS after an overnight incubation with glucuronidase/arylsulfatase enzyme mixture. Pharmacokinetic parameters were calculated using the WinNonlin software.\nAnalysis of Plasma Samples: An LC-MS/MS analytical method for the determination of genistein in rat plasma was developed. Prior to sample analysis, a standard curve was analyzed to determine the specificity, range, and linearity of the method. Total genistein in plasma samples was determined by pre-treating all samples with β-glucuronidase/arylsulfatase enzymes and incubating prior to analysis. Incubation with the enzyme mix deconjugated any glucuronide or sulfate metabolites of genistein back to the parent form.\nAcceptance Criteria for LC-MS/MS Analysis: One standard curve was dispersed throughout each analytical run. At least ⅝ of the standards must be accurate to within ±20%, except at the LLOQ where ±25% is acceptable, in order for the run to pass.\nPharmacokinetic Analysis: Individual plasma concentrations versus time data for genistein were subjected to non-compartmental analysis using the pharmacokinetic program WinNonlin v. […] Plasma concentrations below the limit of quantitation (10 ng/mL) were assigned a value of zero for PK analysis only."}}, "note": "Like-named read-outs stand apart in the source and are kept apart here."}
{"smiles": "O=c1c(-c2ccc(O)cc2)coc2cc(O)cc(O)c12", "note": "[Genistein, 4′,5,7-trihydroxyisoflavone-5,7-dihydroxy-3-(4-hydroxyphenyl)-4H-1-benzopyran-4-one]", "values": [{"measurement": "solubility", "setting": "[1]; aqueous with cosolvent or surfactant or cyclodextrin, thermodynamic from solid, Acetone/Water (50:50)", "value": "< 10.1", "unit": "mg/mL"}, {"measurement": "solubility", "setting": "[1]; organic solvent or mixture, thermodynamic from solid, 1,4-dioxane", "value": "< 10.3", "unit": "mg/mL"}, {"measurement": "solubility", "setting": "[1]; organic solvent or mixture, thermodynamic from solid, 1-Butanol (BuOH)", "value": "< 10.5", "unit": "mg/mL"}, {"measurement": "solubility", "setting": "[1]; organic solvent or mixture, thermodynamic from solid, 2-Propanol (IPA)", "value": "< 10.5", "unit": "mg/mL"}, {"measurement": "solubility", "setting": "[1]; organic solvent or mixture, thermodynamic from solid, Acetone", "value": "~17", "unit": "mg/mL"}, {"measurement": "solubility", "setting": "[1]; organic solvent or mixture, thermodynamic from solid, Acetone/IPA (50:50)", "value": 20.1, "unit": "mg/mL"}, {"measurement": "solubility", "setting": "[1]; organic solvent or mixture, thermodynamic from solid, Acetonitrile (MeCN)", "value": "< 10.1", "unit": "mg/mL"}, {"measurement": "solubility", "setting": "[1]; organic solvent or mixture, thermodynamic from solid, Cyclohexane", "value": "< 10.7", "unit": "mg/mL"}, {"measurement": "solubility", "setting": "[1]; organic solvent or mixture, thermodynamic from solid, Dichloromethane (DCM)", "value": "< 10.3", "unit": "mg/mL"}, {"measurement": "solubility", "setting": "[1]; organic solvent or mixture, thermodynamic from solid, Diisopropylether (DIPE)", "value": "< 10.6", "unit": "mg/mL"}, {"measurement": "solubility", "setting": "[1]; organic solvent or mixture, thermodynamic from solid, Dimethyl sulfoxide (DMSO)", "value": "~100", "unit": "mg/mL"}, {"measurement": "solubility", "setting": "[1]; organic solvent or mixture, thermodynamic from solid, Ethanol (EtOH)", "value": "< 10.8", "unit": "mg/mL"}, {"measurement": "solubility", "setting": "[1]; organic solvent or mixture, thermodynamic from solid, Heptane", "value": "< 10.5", "unit": "mg/mL"}, {"measurement": "solubility", "setting": "[1]; organic solvent or mixture, thermodynamic from solid, Methanol (MeOH)", "value": "< 10.6", "unit": "mg/mL"}, {"measurement": "solubility", "setting": "[1]; organic solvent or mixture, thermodynamic from solid, Methyl acetate (MeOAc)", "value": "< 10.3", "unit": "mg/mL"}, {"measurement": "solubility", "setting": "[1]; organic solvent or mixture, thermodynamic from solid, Methyl isobutyl ketone (MIBK)", "value": "< 10.1", "unit": "mg/mL"}, {"measurement": "solubility", "setting": "[1]; organic solvent or mixture, thermodynamic from solid, Methylethyl ketone (MEK)", "value": "< 10.8", "unit": "mg/mL"}, {"measurement": "solubility", "setting": "[1]; organic solvent or mixture, thermodynamic from solid, N-Methyl-2-pyrrolidinone (NMP)", "value": "~68", "unit": "mg/mL"}, {"measurement": "solubility", "setting": "[1]; organic solvent or mixture, thermodynamic from solid, N-N-dimethylformamide (DMF)", "value": "~100", "unit": "mg/mL"}, {"measurement": "solubility", "setting": "[1]; organic solvent or mixture, thermodynamic from solid, Octanol", "value": "< 10.5", "unit": "mg/mL"}, {"measurement": "solubility", "setting": "[1]; organic solvent or mixture, thermodynamic from solid, Tetrahydrofuran (THF)", "value": 26.3, "unit": "mg/mL"}, {"measurement": "solubility", "setting": "[1]; organic solvent or mixture, thermodynamic from solid, Toluene", "value": "< 10.1", "unit": "mg/mL"}, {"measurement": "solubility", "setting": "[1]; organic solvent or mixture, thermodynamic from solid, Toluene/Dioxane (50:50)", "value": "< 10.1", "unit": "mg/mL"}, {"measurement": "solubility", "setting": "[1]; organic solvent or mixture, thermodynamic from solid, tert-Butylmethyl ether (TBME)", "value": "< 10.5", "unit": "mg/mL"}, {"measurement": "C[Eq] (late kinetic solubility)", "setting": "[2]; EtOH 100%", "value": 13.79, "unit": "mg×1^−1"}, {"measurement": "C[MSS] (early kinetic solubility)", "setting": "[2]; EtOH 100%", "value": 5.81, "unit": "mg×1^−1"}, {"measurement": "ISI (Intrinsic Solubility Index)", "setting": "[2]; EtOH 100%", "value": 2.11}, {"measurement": "ISI / late solubility profile, rating in words", "setting": "[2]; EtOH 100%", "value": "good"}, {"measurement": "KSR (Kinetic Solubility ratio)", "setting": "[2]; EtOH 100%", "value": 0.42}, {"measurement": "KSR, rating in words", "setting": "[2]; EtOH 100%", "value": "acceptable"}, {"measurement": "MSS (Maximum Solubility Speed)", "setting": "[2]; EtOH 100%", "value": 23.81, "unit": "mg×1^−1×min^−1"}, {"measurement": "MSS, rating in words", "setting": "[2]; EtOH 100%", "value": "good"}, {"measurement": "ΔC [C, − CMSS]", "setting": "[2]; EtOH 100%", "value": 7.98, "unit": "mg×1^−1"}, {"measurement": "C[Eq] (late kinetic solubility)", "setting": "[2]; EtOH/dH2O 50/50 (vol/vol)", "value": 12.87, "unit": "mg×1^−1"}, {"measurement": "C[MSS] (early kinetic solubility)", "setting": "[2]; EtOH/dH2O 50/50 (vol/vol)", "value": 7.43, "unit": "mg×1^−1"}, {"measurement": "ISI (Intrinsic Solubility Index)", "setting": "[2]; EtOH/dH2O 50/50 (vol/vol)", "value": 1.55}, {"measurement": "ISI / late solubility profile, rating in words", "setting": "[2]; EtOH/dH2O 50/50 (vol/vol)", "value": "good"}, {"measurement": "KSR (Kinetic Solubility ratio)", "setting": "[2]; EtOH/dH2O 50/50 (vol/vol)", "value": 0.58}, {"measurement": "KSR, rating in words", "setting": "[2]; EtOH/dH2O 50/50 (vol/vol)", "value": "acceptable"}, {"measurement": "MSS (Maximum Solubility Speed)", "setting": "[2]; EtOH/dH2O 50/50 (vol/vol)", "value": 12.18, "unit": "mg×1^−1×min^−1"}, {"measurement": "MSS, rating in words", "setting": "[2]; EtOH/dH2O 50/50 (vol/vol)", "value": "good"}, {"measurement": "ΔC [CEq − CMSS]", "setting": "[2]; EtOH/dH2O 50/50 (vol/vol)", "value": 5.44, "unit": "mg×1^−1"}, {"measurement": "C[Eq] (late kinetic solubility)", "setting": "[2]; EtOH/dH2O 75/25 (vol/vol)", "value": 14.03, "unit": "mg×1^−1"}, {"measurement": "C[MSS] (early kinetic solubility)", "setting": "[2]; EtOH/dH2O 75/25 (vol/vol)", "value": 8.52, "unit": "mg×1^−1"}, {"measurement": "ISI (Intrinsic Solubility Index)", "setting": "[2]; EtOH/dH2O 75/25 (vol/vol)", "value": 1.49}, {"measurement": "ISI / late solubility profile, rating in words", "setting": "[2]; EtOH/dH2O 75/25 (vol/vol)", "value": "good"}, {"measurement": "KSR (Kinetic Solubility ratio)", "setting": "[2]; EtOH/dH2O 75/25 (vol/vol)", "value": 0.61}, {"measurement": "KSR, rating in words", "setting": "[2]; EtOH/dH2O 75/25 (vol/vol)", "value": "good"}, {"measurement": "MSS (Maximum Solubility Speed)", "setting": "[2]; EtOH/dH2O 75/25 (vol/vol)", "value": 19.67, "unit": "mg×1^−1×min^−1"}, {"measurement": "MSS, rating in words", "setting": "[2]; EtOH/dH2O 75/25 (vol/vol)", "value": "good"}, {"measurement": "ΔC [CEq − CMSS]", "setting": "[2]; EtOH/dH2O 75/25 (vol/vol)", "value": 5.51, "unit": "mg×1^−1"}, {"measurement": "Aqueous solubility", "setting": "[3]; Water/slurry pH 4.5, ambient temperature", "value": "BDL"}, {"measurement": "Aqueous solubility", "setting": "[3]; Water/slurry pH 6.7, ambient temperature", "value": "BDL"}, {"measurement": "Aqueous solubility", "setting": "[3]; Water/slurry pH 7.5, ambient temperature", "value": "BDL"}, {"measurement": "Solubility in water (in words)", "setting": "[4]; background statement", "value": "practically insoluble"}, {"measurement": "Aqueous solubility (reported)", "setting": "[4]; reported range", "value": "0.01 to 0.04", "unit": "µM"}, {"measurement": "AUClast", "setting": "[5]; intraduodenal, 20 mg/kg", "value": "414 ± 111", "unit": "kg·ng·h/mL/mg"}, {"measurement": "AUClast", "setting": "[5]; intravenous, 1 mg/kg", "value": "2533 ± 638", "unit": "kg·ng·h/mL/mg"}, {"measurement": "AUC∞", "setting": "[5]; intravenous, 1 mg/kg", "value": "2584 ± 639", "unit": "kg·ng·h/mL/mg"}]}
